PMC7830893, “Four Novel Phenanthrene Derivatives with α-Glucosidase Inhibitory Activity from Gastrochilus bellinus” (Molecules, 2021)
Entries after “also recorded” stand apart in the source; their conditions may differ.

Legend:
α-glucosidase [1] = assay: α-glucosidase inhibitory assay (pNPG, absorbance at 405 nm); assay type: biochemical; details: for α-glucosidase inhibitory activity compared with acarbose: comparison with the drug acarbose; for IC50: pNPG substrate, 37 °C, mean ± SD, triplicate
Method: The α-glucosidase enzyme inhibition assay was carried out according to the method in our previous report. The inhibitory activity was determined by measuring the p-nitrophenol, a yellow color substance that can be monitored at 405 nm, released from p-nitrophenyl-α-D-glucopyranoside (pNPG) by the α-glucosidase enzyme. The test samples were initially dissolved in 50% DMSO, and then, 10 µL of the sample solution and 40 µL of 0.1 unit/mL α-glucosidase were incubated at 37 °C for 10 min. After that, to start the reaction, 50 µL of 2 mM pNPG was added to the mixture and incubated at 37 °C for 20 min. One hundred microliters of 1 M Na2CO3 was added to stop the reaction, and then, the absorbance was measured at 405 nm. […] Each experiment was performed in triplicate.

α-glucosidase [2] = assay: α-glucosidase enzyme kinetic study (Lineweaver–Burk and secondary plots); assay type: biochemical; details: for mode of enzyme inhibition: Lineweaver–Burk plot
Method: The enzyme kinetics parameters (Km and Vmax) were determined by analyzing the double reciprocal Lineweaver–Burk plot (1/V vs. 1/[S]). Each experiment was carried out by varying the concentration of pNPG (2.0, 1.0, 0.5, and 0.25 mM) in the absence and presence of different concentrations of the test sample. The reaction was monitored at 405 nm by a microplate reader every 5 min for a total time of 25 min. Each experiment was performed in triplicate. […] For compound 3, secondary plots were plots of the inverted values of Km (1/Km) as a function of inhibitor concentration. The inhibition constant (Ki) was then calculated from the intersection point.

IC50 (α-glucosidase [1]) | Structure (SMILES) | α-glucosidase inhibitory activity compared with acarbose (α-glucosidase [1]) | also measured
– | O=Cc1ccc(O)cc1 [Compound 8, 4-hydroxybenzaldehyde] | higher α-glucosidase inhibitory activity than acarbose | –
381 ± 9.3 µM | COc1cc(/C=C/C=O)ccc1O [Compound 7, coniferyl aldehyde] | higher activity than the drug acarbose; also recorded: higher α-glucosidase inhibitory activity than acarbose | –
88.7 ± 4.1 µM | COc1c(O)cc2c3c1COc1c(Cc4ccc(O)cc4)c(O)cc(c1-3)CC2 [Compound 1, gastrobellinol A] | higher activity than the drug acarbose; also recorded: higher α-glucosidase inhibitory activity than acarbose | –
301 ± 6.6 µM | COc1c(O)cc2c3c1COc1cc(O)cc(c1-3)CC2 [Compound 15, imbricatin] | higher activity than the drug acarbose; also recorded: higher α-glucosidase inhibitory activity than acarbose | –
– | C[C@H]1O[C@H](O[C@H]2[C@H](O)[C@@H](O)[C@@H](O[C@H]3[C@H](O)[C@@H](O)C(O)O[C@@H]3CO)O[C@@H]2CO)[C@H](O)[C@@H](O)[C@@H]1N[C@H]1C=C(CO)[C@@H](O)[C@H](O)[C@H]1O (some centres unmarked) [Acarbose, acarbose, reference compound] | – | mode of enzyme inhibition (α-glucosidase [2]): competitive inhibition; Vmax (α-glucosidase [2]; inhibitor dose 387 µM): 0.1 ∆ A405/min; Vmax (α-glucosidase [2]; inhibitor dose 744 µM): 0.1 ∆ A405/min
53.7 ± 12.5 µM | COc1c(O)cc2c3c1COc1cc(O)c(Cc4ccc(O)cc4)c(c1-3)CC2 [Compound 13, 1-(4′-hydroxybenzyl)-imbricartin] | higher activity than the drug acarbose; also recorded: higher α-glucosidase inhibitory activity than acarbose | –

Structure (SMILES) | IC50 (α-glucosidase [1]) | α-glucosidase inhibitory activity compared with acarbose (α-glucosidase [1]) | also measured
COc1c(O)cc2ccc3c(Cc4ccc(O)cc4)c(O)cc4c3c2c1CO4 [Compound 3, gastrobellinol C] | 45.9 ± 2.8 µM | higher activity than the drug acarbose; also recorded: higher α-glucosidase inhibitory activity than acarbose | mode of enzyme inhibition (α-glucosidase [2]): competitive inhibition; also recorded: competitive inhibitor; Ki (α-glucosidase [2]; from secondary plot): 87.3 µM; Vmax (α-glucosidase [2]; inhibitor dose 20 µM, pNPG 0.25–2.0 mM): 0.1 ∆ A405/min; Vmax (α-glucosidase [2]; inhibitor dose 40 µM, pNPG 0.25–2.0 mM): 0.1 ∆ A405/min; maximum velocity (Vmax) (α-glucosidase [2]; unchanged at 20 µM and 40 µM compound 3): 0.1 A405/min
COc1cc2c3c(ccc4cc(O)c(OC)c(c43)CO2)c1Cc1ccc(O)cc1 [Compound 2, gastrobellinol B] | 97.8 ± 3.1 µM | higher activity than the drug acarbose; also recorded: higher α-glucosidase inhibitory activity than acarbose | –
COc1cc2ccc3cc(O)c(OC)c4c(=O)oc(c1)c2c34 [Compound 9, agrostophyllone] | 281 ± 15.9 µM | higher activity than the drug acarbose | –
